Values quoted from earlier work in patent publication US6533967B1, “Initiating system for solid polyester granule manufacture” (Orica Australia Pty Ltd, priority 1999, dated 2003).

Test system: rat
Settings: inhalation of vapours, 4 h

In the case of `CCN(CC)c1ccccc1` [N,N-diethylaniline], the LC50 rat is given as 1920 mg/m^3/4 h.
